Source: the supplement of paper PMC9005190
One block for each compound: values may come before it.

Assays:
PAR2 [1] = target: PAR2 (UniProt P55085); assay: pEC50 of agonist-induced pathway activation (ebBRET)
PAR2 [2] = target: PAR2 (UniProt P55085); assay: Emax (maximal agonist-induced change in ebBRET relative to vehicle) (% of vehicle response (amplitude of change)); higher = larger response (for Gs, larger decrease in membrane ebBRET, i.e. stronger Gs activation)
PAR1 [3] = target: T1, PAR1 (UniProt P25116); assay: pEC50 of agonist-induced pathway activation (ebBRET)
T1 sequence (whole entry): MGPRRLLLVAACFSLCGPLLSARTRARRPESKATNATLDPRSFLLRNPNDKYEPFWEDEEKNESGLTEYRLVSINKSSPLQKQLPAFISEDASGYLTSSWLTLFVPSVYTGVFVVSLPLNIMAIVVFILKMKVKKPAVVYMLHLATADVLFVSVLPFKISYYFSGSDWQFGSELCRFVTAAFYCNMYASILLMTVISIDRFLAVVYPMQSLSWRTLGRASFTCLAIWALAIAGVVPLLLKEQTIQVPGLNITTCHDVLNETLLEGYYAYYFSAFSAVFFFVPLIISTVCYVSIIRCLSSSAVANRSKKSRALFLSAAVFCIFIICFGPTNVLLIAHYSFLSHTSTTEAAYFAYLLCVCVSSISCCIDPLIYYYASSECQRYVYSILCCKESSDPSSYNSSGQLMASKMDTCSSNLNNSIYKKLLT

PAR1 [4] = target: T1, PAR1; assay: Emax (maximal agonist-induced change in ebBRET relative to vehicle) (% of vehicle response (amplitude of change)); higher = larger response (for Gs, larger decrease in membrane ebBRET, i.e. stronger Gs activation)
EP1 = target: T2, EP1 (UniProt P34995); assay: pEC50 of agonist-induced pathway activation (ebBRET)
T2 sequence (whole entry): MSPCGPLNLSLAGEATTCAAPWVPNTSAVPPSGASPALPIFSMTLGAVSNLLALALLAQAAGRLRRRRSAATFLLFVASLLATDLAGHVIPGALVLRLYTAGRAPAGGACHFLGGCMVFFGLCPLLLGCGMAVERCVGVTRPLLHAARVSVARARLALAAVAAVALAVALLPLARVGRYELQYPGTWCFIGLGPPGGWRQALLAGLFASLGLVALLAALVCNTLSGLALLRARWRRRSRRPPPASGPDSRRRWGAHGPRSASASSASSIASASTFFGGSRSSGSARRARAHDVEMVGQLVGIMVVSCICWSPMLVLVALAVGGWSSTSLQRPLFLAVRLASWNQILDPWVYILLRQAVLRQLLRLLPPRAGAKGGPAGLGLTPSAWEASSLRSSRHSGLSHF

FFA4 [5] = assay: as above
FFA4 [6] = assay: Emax (maximal agonist-induced change in ebBRET relative to vehicle) (% of vehicle response (amplitude of change)); higher = larger response (for Gs, larger decrease in membrane ebBRET, i.e. stronger Gs activation)
P2Y2 [7] = target: P2Y2 (UniProt P41231); assay: pEC50 of agonist-induced pathway activation (ebBRET)
Sequence of P2Y2 (P41231 whole entry): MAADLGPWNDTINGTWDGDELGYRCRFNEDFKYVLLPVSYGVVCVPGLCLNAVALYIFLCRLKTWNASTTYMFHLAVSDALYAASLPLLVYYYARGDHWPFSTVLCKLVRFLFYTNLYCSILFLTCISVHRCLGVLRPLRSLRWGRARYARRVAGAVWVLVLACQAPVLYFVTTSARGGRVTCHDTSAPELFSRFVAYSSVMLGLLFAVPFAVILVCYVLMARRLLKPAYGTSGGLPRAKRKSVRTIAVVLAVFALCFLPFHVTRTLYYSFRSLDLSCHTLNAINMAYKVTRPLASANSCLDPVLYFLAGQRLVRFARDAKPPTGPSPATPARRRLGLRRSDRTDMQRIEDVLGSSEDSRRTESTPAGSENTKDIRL

P2Y2 [8] = target: P2Y2 (UniProt P41231); assay: Emax (maximal agonist-induced change in ebBRET relative to vehicle) (% of vehicle response (amplitude of change)); higher = larger response (for Gs, larger decrease in membrane ebBRET, i.e. stronger Gs activation)
[9] = pathway (G protein / arrestin sensor): G11
[10] = pathway (G protein / arrestin sensor): G12
[11] = pathway (G protein / arrestin sensor): G13
[12] = pathway (G protein / arrestin sensor): G14
[13] = pathway (G protein / arrestin sensor): G15
[14] = pathway (G protein / arrestin sensor): Gi1
[15] = pathway (G protein / arrestin sensor): Gi2
[16] = pathway (G protein / arrestin sensor): GoA
[17] = pathway (G protein / arrestin sensor): GoB
[18] = pathway (G protein / arrestin sensor): Gq
[19] = pathway (G protein / arrestin sensor): Gz
[20] = pathway (G protein / arrestin sensor): βarr1/GRK2
[21] = pathway (G protein / arrestin sensor): βarr2
[22] = pathway (G protein / arrestin sensor): βarr2/GRK2

Sequence of PAR2 (P55085 whole entry): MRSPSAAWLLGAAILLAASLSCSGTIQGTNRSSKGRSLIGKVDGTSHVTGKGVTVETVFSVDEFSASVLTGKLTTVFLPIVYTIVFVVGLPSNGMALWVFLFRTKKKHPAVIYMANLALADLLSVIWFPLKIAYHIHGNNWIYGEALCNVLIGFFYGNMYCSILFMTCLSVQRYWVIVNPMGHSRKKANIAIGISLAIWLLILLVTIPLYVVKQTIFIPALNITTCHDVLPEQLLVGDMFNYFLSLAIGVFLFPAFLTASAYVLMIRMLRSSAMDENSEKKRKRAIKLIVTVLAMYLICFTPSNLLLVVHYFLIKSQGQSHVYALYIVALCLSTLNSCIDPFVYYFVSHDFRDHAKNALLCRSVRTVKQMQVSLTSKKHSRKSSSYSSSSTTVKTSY

SMILES: CC[C@H](C)[C@H](NC(=O)[C@H](CC(C)C)NC(=O)[C@@H](N)CO)C(=O)NCC(=O)N[C@@H](CCCCN)C(=O)N[C@H](C(N)=O)C(C)C [SLIGKV-NH2]
pEC50 (PAR2 [1]; [9]): 5.96
pEC50 (PAR2 [1]; [10]): 7.79
pEC50 (PAR2 [1]; [11]): 6.87
pEC50 (PAR2 [1]; [12]): 5.46
pEC50 (PAR2 [1]; [13]): 5.81
pEC50 (PAR2 [1]; [14]): 5.32
pEC50 (PAR2 [1]; [15]): 5.65
pEC50 (PAR2 [1]; [16]): 5.85
pEC50 (PAR2 [1]; [17]): 6.32
pEC50 (PAR2 [1]; [18]): 5.18
pEC50 (PAR2 [1]; [19]): 6.23
pEC50 (PAR2 [1]; [20]): 4.65
pEC50 (PAR2 [1]; [21]): 4.63
pEC50 (PAR2 [1]; [22]): 4.75
Emax (PAR2 [2]; [9]): 483
Emax (PAR2 [2]; [10]): 41.5
Emax (PAR2 [2]; [11]): 235
Emax (PAR2 [2]; [12]): 419
Emax (PAR2 [2]; [13]): 498
Emax (PAR2 [2]; [14]): 621
Emax (PAR2 [2]; [15]): 326
Emax (PAR2 [2]; [16]): 217
Emax (PAR2 [2]; [17]): 320
Emax (PAR2 [2]; [18]): 304
Emax (PAR2 [2]; [19]): 188
Emax (PAR2 [2]; [20]): 861
Emax (PAR2 [2]; [21]): 766
Emax (PAR2 [2]; [22]): 489

SMILES: CC(C)C[C@H](NC(=O)[C@H](CC(C)C)NC(=O)[C@H](Cc1ccccc1)NC(=O)[C@@H](N)[C@@H](C)O)C(=O)N[C@@H](CCCN=C(N)N)C(N)=O [TFLLR-NH2]
pEC50 (PAR1 [3]; [9]): 6.55
pEC50 (PAR1 [3]; [11]): 7.11
pEC50 (PAR1 [3]; [12]): 5.74
pEC50 (PAR1 [3]; [13]): 6.22
pEC50 (PAR1 [3]; [14]): 4
pEC50 (PAR1 [3]; [15]): 5.04
pEC50 (PAR1 [3]; [16]): 5.89
pEC50 (PAR1 [3]; [17]): 6
pEC50 (PAR1 [3]; [18]): 6.72
pEC50 (PAR1 [3]; [19]): 6.41
pEC50 (PAR1 [3]; [20]): 5.08
pEC50 (PAR1 [3]; [21]): 5.12
pEC50 (PAR1 [3]; [22]): 5.18
Emax (PAR1 [4]; [9]): 382
Emax (PAR1 [4]; [11]): 193
Emax (PAR1 [4]; [12]): 405
Emax (PAR1 [4]; [13]): 332
Emax (PAR1 [4]; [14]): 574
Emax (PAR1 [4]; [15]): 177
Emax (PAR1 [4]; [16]): 73
Emax (PAR1 [4]; [17]): 221
Emax (PAR1 [4]; [18]): 238
Emax (PAR1 [4]; [19]): 144
Emax (PAR1 [4]; [20]): 446
Emax (PAR1 [4]; [21]): 439
Emax (PAR1 [4]; [22]): 470

SMILES: O=c1ccn([C@@H]2O[C@H](COP(=O)(O)OP(=O)(O)OP(=O)(O)O)[C@@H](O)[C@H]2O)c(=O)[nH]1 [UTP]
pEC50 (P2Y2 [7]; [9]): 6.43
pEC50 (P2Y2 [7]; [12]): 6.29
pEC50 (P2Y2 [7]; [13]): 6.08
pEC50 (P2Y2 [7]; [14]): 6.29
pEC50 (P2Y2 [7]; [15]): 6.54
pEC50 (P2Y2 [7]; [16]): 5.94
pEC50 (P2Y2 [7]; [17]): 6.37
pEC50 (P2Y2 [7]; [18]): 6.4
pEC50 (P2Y2 [7]; [19]): 6.04
pEC50 (P2Y2 [7]; [20]): 5.24
pEC50 (P2Y2 [7]; [21]): 4.99
pEC50 (P2Y2 [7]; [22]): 5.36
Emax (P2Y2 [8]; [9]): 26.1
Emax (P2Y2 [8]; [12]): 26.7
Emax (P2Y2 [8]; [13]): 198
Emax (P2Y2 [8]; [14]): 59.2
Emax (P2Y2 [8]; [15]): 25.9
Emax (P2Y2 [8]; [16]): 85.7
Emax (P2Y2 [8]; [17]): 54.5
Emax (P2Y2 [8]; [18]): 29.2
Emax (P2Y2 [8]; [19]): 91.8
Emax (P2Y2 [8]; [20]): 185
Emax (P2Y2 [8]; [21]): 346
Emax (P2Y2 [8]; [22]): 94.7

Continued, values first:

pEC50 (EP1; [9]): 8.27
pEC50 (EP1; [10]): 9.51
pEC50 (EP1; [11]): 8.04
pEC50 (EP1; [12]): 7.95
pEC50 (EP1; [13]): 9.29
pEC50 (EP1; [14]): 6.43
pEC50 (EP1; [15]): 7.37
pEC50 (EP1; [16]): 8
pEC50 (EP1; [17]): 7.46
pEC50 (EP1; [18]): 8.32
pEC50 (EP1; [21]): 7.41
SMILES: CCCCC[C@H](O)/C=C/[C@H]1[C@H](O)CC(=O)[C@@H]1C/C=C\CCCC(=O)O [PGE2]

pEC50 (FFA4 [5]; [9]): 5.08
pEC50 (FFA4 [5]; [11]): 4.8
pEC50 (FFA4 [5]; [12]): 5.5
pEC50 (FFA4 [5]; [13]): 5.53
pEC50 (FFA4 [5]; [14]): 6.12
pEC50 (FFA4 [5]; [15]): 6.31
pEC50 (FFA4 [5]; [16]): 5.6
pEC50 (FFA4 [5]; [17]): 6.27
pEC50 (FFA4 [5]; [18]): 5.1
pEC50 (FFA4 [5]; [20]): 4.7
pEC50 (FFA4 [5]; [21]): 4.94
pEC50 (FFA4 [5]; [22]): 4.87
Emax (FFA4 [6]; [9]): 288
Emax (FFA4 [6]; [11]): 120
Emax (FFA4 [6]; [12]): 297
Emax (FFA4 [6]; [13]): 476
Emax (FFA4 [6]; [14]): 35
Emax (FFA4 [6]; [15]): 23.3
Emax (FFA4 [6]; [16]): 64
Emax (FFA4 [6]; [17]): 30.2
Emax (FFA4 [6]; [18]): 198
Emax (FFA4 [6]; [20]): 1090
Emax (FFA4 [6]; [21]): 993
Emax (FFA4 [6]; [22]): 999
SMILES: CC/C=C\C/C=C\C/C=C\CCCCCCCC(=O)O [α-linolenic acid]
